This is an account of results in ChEMBL document CHEMBL5579894, “Antimicrobial Dihydroflavonols and Isoflavans Isolated from the Root Bark of Dalbergia gloveri” (2024).

In general, MIC refers to the smallest concentration in the dilution series that meets the test's criterion for growth inhibition.

Format in all cases: functional
One assay concerns Staphylococcus aureus. Kind of assay: Antibacterial activity against Staphylococcus aureus assessed as reduction in microbial growth incubated for 24 hrs by microdilution method. Background: Dilution methods test growth across graded concentrations, often in twofold steps.
The test system of the next assay is Escherichia coli. As to the kind of experiment: Antibacterial activity against Escherichia coli assessed as reduction in microbial growth incubated for 24 hrs by microdilution method.
Another assay deals with Candida albicans. As to the kind of experiment: Antifungal activity against Candida albicans assessed as reduction in fungal growth incubated for 24 hrs by microdilution method.

In brackets after ≈: the same amount, converted by molar mass.

`CCCCCCCCN=c1ccn(CCCCCCCCCCn2ccc(=NCCCCCCCC)cc2)cc1` [OCTENIDINE]: the MIC worked out at 0.5 µM with Staphylococcus aureus, 0.5 µM in the assay with Escherichia coli and 0.5 µM (≈ 0.275 µg/mL) in the assay on Candida albicans.

As for `O=C(CC(O)c1ccc(O)cc1)c1ccc(O)cc1O` (configuration not stated), the minimum inhibitory concentration (MIC) in the assay on Staphylococcus aureus is 14.2 µM; in the assay on Escherichia coli, greater than 1000 µM; with Candida albicans, 56.9 µM (≈ 15.6 µg/mL).

`COc1ccc([C@@H]2COc3c(ccc(O)c3C/C=C(\C)CCC=C(C)C)C2)c(O)c1O`: the MIC came out at 36.7 µM in the assay on Staphylococcus aureus, 294 µM in the assay on Escherichia coli and 73.7 µM (≈ 31.3 µg/mL) with Candida albicans.

On to `C=C(CO)[C@H]1Cc2c(ccc3c2O[C@@H]2COc4cc(OC)c(OC)cc4[C@]2(O)C3=O)O1` [DABINOL], for which the figures for the MIC in the assay on Staphylococcus aureus, in the assay on Escherichia coli and in the assay on Candida albicans were 293 µM, greater than 1000 µM and 147 µM (≈ 62.5 µg/mL), respectively.

As for `CC(C)=CCC/C(C)=C/Cc1cc([C@H]2Oc3cc(O)ccc3C(=O)[C@@H]2O)cc(O)c1O`, the MIC with Staphylococcus aureus is 36.7 µM; in the assay with Escherichia coli, 294 µM; in the assay with Candida albicans it was 73.7 µM (≈ 31.3 µg/mL).

With `O=C(/C=C/c1ccc(O)cc1)c1ccc(O)cc1O` [ISOLIQUIRITIGENIN], the MIC in the assay with Staphylococcus aureus is 488 µM; in the assay on Escherichia coli it was greater than 1000 µM; in the assay with Candida albicans, greater than 1000 µM.

As for `C=C(CO)[C@H]1Cc2c(ccc3c(=O)c4c(oc23)COc2cc(OC)c(OC)cc2-4)O1`, the MIC with Staphylococcus aureus was 612 µM; with Escherichia coli it was greater than 1000 µM; in the assay with Candida albicans it was greater than 1000 µM.

`CC(C)=CCC[C@]1(C)C=Cc2c(ccc3c2O[C@H](c2ccc(O)c(O)c2)[C@@H](O)C3=O)O1`: the figures for the MIC in the assay with Staphylococcus aureus, in the assay with Escherichia coli and with Candida albicans were 36.9 µM, greater than 1000 µM and 74.1 µM (≈ 31.3 µg/mL), respectively.

For `CC(C)=CCC[C@]1(C)C=Cc2cc([C@H]3Oc4cc(O)ccc4C(=O)[C@@H]3O)cc(O)c2O1`, the figures for the minimum inhibitory concentration (MIC) in the assay with Staphylococcus aureus, in the assay with Escherichia coli and in the assay on Candida albicans were 9.2 µM, 296 µM and 74.1 µM (≈ 31.3 µg/mL), respectively.

For the compound `CC(C)=CCCC1(C)C=Cc2c(ccc(C(=O)/C=C/c3ccc(O)cc3)c2O)O1` (configuration not stated) [LESPEOL], the minimum inhibitory concentration (MIC) in the assay on Staphylococcus aureus was found to be 40 µM; in the assay on Escherichia coli it was 64 µM; with Candida albicans it was 40 µM (≈ 15.6 µg/mL).

Consider `CC(C)=CCC/C(C)=C/Cc1c(O)ccc2c(=O)c(O)c(-c3ccc(O)c(O)c3)oc12`, for which the MIC in the assay with Staphylococcus aureus, in the assay with Escherichia coli and with Candida albicans was greater than 1000 µM each time.

Turning to `COc1ccc(C2COc3c(ccc4c3C=CC(C)(CCC=C(C)C)O4)C2)c(O)c1O` (configuration not stated), the values for the MIC in the assay with Staphylococcus aureus, in the assay on Escherichia coli and in the assay on Candida albicans were 36.9 µM, 296 µM and 36.9 µM (≈ 15.6 µg/mL), respectively.

Turning to `CC(=O)O[C@H]1CC[C@]2(C)[C@H]3CC=C4[C@@H]5CC(C)(C)CC[C@]5(C(=O)O)CC[C@@]4(C)[C@]3(C)CC[C@H]2C1(C)C` [ACETYL OLEANOLIC ACID], the MIC in the assay on Staphylococcus aureus is 251 µM; in the assay with Escherichia coli it was greater than 1000 µM; in the assay with Candida albicans, 251 µM (≈ 125 µg/mL).

As to `C=C[C@@](C)(CCC=C(C)C)c1cc([C@@H]2COc3cc(O)ccc3C2)c(O)c(O)c1OC`, the results for the MIC with Staphylococcus aureus, in the assay with Escherichia coli and with Candida albicans were 18.4 µM, greater than 1000 µM and 73.7 µM (≈ 31.3 µg/mL), respectively.
